Experimental data taken from patent US20230040415A1 (PureTech LYT 100, Inc., priority 2020, published 2023).

How the values were obtained:
[1] = system: L929 cells; assay: TGF-induced soluble collagen synthesis in L929 cells (ELISA); assay type: cell-based; conditions: 500 μM
Protocol: Five thousand L929 cells were plated in complete DMEN and incubated until confluency for 3 days. Medium was removed and complete DMEM containing Prolin (20 μg/ml) and ascorbic acid (10 μM) was added. […] Cells were further incubated for 72 hrs. 200 μl supernatant of 96-well SIRCOL plate was placed onto ELISA plate and incubated 0/N. Next day, supernatant was removed and 100 ul of 1% BSA in PBST was added and incubated for 2 h at RT, BSA was removed, plate was washed 3× with 200 μl of PBST, and anti-collagen type I a.b was added at 1:2000 dilution (prepared in %1 BSA in PBST), incubated at RT for 1 h, primary a.b was removed, plate was washed 3× with 200 μl PBST, and secondary anti-goat HRP was added at 1:2000 dilution, incubate at RT for 1 h, removed, plate was washed 3× with 200 μl PBST and 100 μl of TMB solution was added for color development for 15 min, then 100 μl of 2 N H2SO4 was added to stop the reaction and O.D of developed yellow color was determined at 450 nm.

[2] = system: mouse tail model of lymphedema; assay: Mouse tail model of lymphedema; assay type: in vivo; conditions: once daily oral gavage, by 5 weeks; 7 animals per group
[3] = system: Primary Mouse Lung Fibroblasts; assay: TGF-β-induced insoluble collagen synthesis, 96-well plate format (Sircol); assay type: cell-based; conditions: 500 μM, TGF-β 5 ng/ml, 72 hours, FIG. 4C; p=0.0003
Protocol: Approximately 5,000 primary mouse fibroblasts were plated in complete DMEM in 96 well plates and incubated for 3 days at which time the cultures achieved confluency. After cells reached confluency, the medium was removed and fresh DMEM supplemented with ascorbic acid (20 μg/ml) and prolin (10 μMol) was added. […] One hour later, TGF-β was added to the appropriate cultures at a final concentration of 5 ng/ml. After 72 hours, the media was replaced with a 0.5% glutaraldehyde solution. After 30 minutes, the adherent cells were washed and subsequently incubated with acetic acid at a final concentration of 0.5M. After a 30 min room temperature incubation, and subsequent washing steps, the wells were incubated with Sircol reagent. After 5 hours, the unbound dye was removed and the plates were washed and allowed to dry. To extract collagen-bound Sircol, 100 μL of alkaline solution (0.5M NaOH) was added and plates were shaken for 1 h on rotary shaker at room temperature. Absorbance at 600 nm was determined to detect bound collagen.

[4] = system: Primary Mouse Lung Fibroblasts; assay: Survival / TGF-β-induced proliferation of Primary Mouse Lung Fibroblasts (MTT); assay type: cell-based; conditions: 500 μM, 72 hrs
Protocol: Primary Mouse lung fibroblast were prepared as follows. One lung was removed from 2 months old male BalbC Mouse, perfused with sterile PBS, minced and incubated in 2 ml of serum free Dulbecco's Modified Eagle's Medium (DMEM) containing 100 μg/ml of collagenase I for one hour at 37° C. Each sample was centrifuged at 1500 r.p.m (revolution per minute) for 5 minutes, washed three times with PBS and the final cellular pellet was resuspended in DMEM supplemented with 10% serum and Pen/Strep, and incubated in 150 mm plates at 37° C. with 80% humidity and […]. The growth medium was removed and fresh medium was added every day for 10 days.
At the end of 10-day incubation period above, lung fibroblasts were confluent. […] One hundred μL of the growth medium was removed and 20 μL of MTT stock solution (prepared in PBS at 5.5 mg/ml concentration) was added and cells were incubated for 4 hrs, then 100 μl of DMSO was added, and absorbance of developed color was monitored at 540-690 nm.

In the case of `[2H]C([2H])([2H])c1ccc(=O)n(-c2ccccc2)c1` [LYT-100, 5-(methyl-d3)-1-phenylpyridin-2-(1H)-one], the “soluble collagen levels in the absence of TGF-β-induction” value [1] is reported as “significantly reduced”, the “TGF-β-induced soluble collagen levels” value ([1]; TGF-β 5 ng/ml, 72 hrs) is reported as “significantly inhibits” and the “tail swelling vs carboxymethylcellulose control” value [2] is reported as “significantly reduced swelling”. The “diminution of TGF-β-stimulated insoluble collagen accumulation” value [3] was 24%, the “survival of PMLF alone” value ([4]; without TGF-β) was “did not affect the survival” and the “diminution of TGF-β-induced proliferation of PMLF” value ([4]; TGF-β 5 ng/ml, not statistically significant (p=0.19)) was 10%.
